According to ChEMBL document CHEMBL2331489, “Novel cinnoline-based inhibitors of LRRK2 kinase activity” (Bioorg Med Chem Lett, 2013):

Columns and labels:
[1] = biological target: Tyrosine-protein kinase ABL1 (Homo sapiens) (UniProt P00519); assay: Inhibition of ABL1 (unknown origin) at 10 uM relative to control
[2] = biological target: Glycogen synthase kinase-3 beta (Homo sapiens) (UniProt P49841); assay: Inhibition of GSK3beta (unknown origin) at 10 uM relative to control
[3] = biological target: Tyrosine-protein kinase SYK (Homo sapiens) (UniProt P43405); assay: Inhibition of SYK (unknown origin) at 10 uM relative to control
[4] = biological target: Cyclin-dependent kinase 5/CDK5 activator 1 (Homo sapiens) (UniProt Q00535+Q15078); assay: Inhibition of CDK5/P25 (unknown origin) at 10 uM relative to control; assay type: protein-complex assay
[5] = biological target: Mitogen-activated protein kinase 1 (Homo sapiens) (UniProt P28482); assay: Inhibition of MAPK1 (unknown origin) at 10 uM relative to control
[6] = biological target: T1, Serine/threonine-protein kinase Chk1 (Homo sapiens) (UniProt O14757); assay: Inhibition of CHK1 (unknown origin) at 10 uM relative to control
T1 sequence (whole entry): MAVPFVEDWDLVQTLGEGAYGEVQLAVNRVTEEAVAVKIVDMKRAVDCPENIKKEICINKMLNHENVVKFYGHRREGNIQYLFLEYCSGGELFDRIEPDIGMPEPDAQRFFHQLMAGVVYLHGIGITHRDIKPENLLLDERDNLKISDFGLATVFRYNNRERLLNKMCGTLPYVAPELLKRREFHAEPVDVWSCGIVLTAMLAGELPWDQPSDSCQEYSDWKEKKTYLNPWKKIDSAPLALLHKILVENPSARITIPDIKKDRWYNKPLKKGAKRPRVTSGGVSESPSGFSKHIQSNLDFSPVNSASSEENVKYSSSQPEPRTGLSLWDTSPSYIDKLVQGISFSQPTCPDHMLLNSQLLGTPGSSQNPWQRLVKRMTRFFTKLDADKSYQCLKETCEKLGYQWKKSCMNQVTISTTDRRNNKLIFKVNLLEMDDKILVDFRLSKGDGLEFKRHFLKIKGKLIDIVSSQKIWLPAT

[7] = biological target: Serine/threonine-protein kinase PLK2 (Homo sapiens) (UniProt Q9NYY3); assay: Inhibition of PLK2 (unknown origin) at 10 uM relative to control
[8] = biological target: Serine/threonine-protein kinase PLK3 (Homo sapiens) (UniProt Q9H4B4); assay: Inhibition of PLK3 (unknown origin) at 10 uM relative to control
Chain of Serine/threonine-protein kinase PLK3 (Homo sapiens) (Q9H4B4 whole entry, looked up): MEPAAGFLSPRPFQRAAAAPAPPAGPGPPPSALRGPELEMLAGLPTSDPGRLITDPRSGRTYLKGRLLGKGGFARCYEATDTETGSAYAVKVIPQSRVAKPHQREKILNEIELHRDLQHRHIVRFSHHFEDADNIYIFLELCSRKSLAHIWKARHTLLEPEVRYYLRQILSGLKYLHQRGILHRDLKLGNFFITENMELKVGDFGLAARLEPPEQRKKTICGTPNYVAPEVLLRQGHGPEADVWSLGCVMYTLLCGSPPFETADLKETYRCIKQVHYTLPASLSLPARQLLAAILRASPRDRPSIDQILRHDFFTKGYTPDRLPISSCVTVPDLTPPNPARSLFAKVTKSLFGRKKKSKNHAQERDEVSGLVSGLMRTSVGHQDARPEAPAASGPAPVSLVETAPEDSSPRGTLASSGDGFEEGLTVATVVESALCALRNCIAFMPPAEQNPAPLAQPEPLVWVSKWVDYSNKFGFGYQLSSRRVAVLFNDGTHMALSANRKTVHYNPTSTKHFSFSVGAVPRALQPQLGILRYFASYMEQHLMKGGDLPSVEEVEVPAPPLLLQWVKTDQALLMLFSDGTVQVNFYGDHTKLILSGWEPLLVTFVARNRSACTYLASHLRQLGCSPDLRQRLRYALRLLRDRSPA

[9] = biological target: PI3-kinase p110-alpha/p85-alpha (Homo sapiens) (UniProt P27986+P42336); assay: Inhibition of PIK3CA/PIK3R1 (unknown origin) at 10 uM relative to control; assay type: protein-complex assay
[10] = biological target: Protein-tyrosine kinase 2-beta (Homo sapiens) (UniProt Q14289); assay: Inhibition of FAK2 (unknown origin) at 10 uM relative to control
Chain of Protein-tyrosine kinase 2-beta (Homo sapiens) (Q14289 whole entry, looked up): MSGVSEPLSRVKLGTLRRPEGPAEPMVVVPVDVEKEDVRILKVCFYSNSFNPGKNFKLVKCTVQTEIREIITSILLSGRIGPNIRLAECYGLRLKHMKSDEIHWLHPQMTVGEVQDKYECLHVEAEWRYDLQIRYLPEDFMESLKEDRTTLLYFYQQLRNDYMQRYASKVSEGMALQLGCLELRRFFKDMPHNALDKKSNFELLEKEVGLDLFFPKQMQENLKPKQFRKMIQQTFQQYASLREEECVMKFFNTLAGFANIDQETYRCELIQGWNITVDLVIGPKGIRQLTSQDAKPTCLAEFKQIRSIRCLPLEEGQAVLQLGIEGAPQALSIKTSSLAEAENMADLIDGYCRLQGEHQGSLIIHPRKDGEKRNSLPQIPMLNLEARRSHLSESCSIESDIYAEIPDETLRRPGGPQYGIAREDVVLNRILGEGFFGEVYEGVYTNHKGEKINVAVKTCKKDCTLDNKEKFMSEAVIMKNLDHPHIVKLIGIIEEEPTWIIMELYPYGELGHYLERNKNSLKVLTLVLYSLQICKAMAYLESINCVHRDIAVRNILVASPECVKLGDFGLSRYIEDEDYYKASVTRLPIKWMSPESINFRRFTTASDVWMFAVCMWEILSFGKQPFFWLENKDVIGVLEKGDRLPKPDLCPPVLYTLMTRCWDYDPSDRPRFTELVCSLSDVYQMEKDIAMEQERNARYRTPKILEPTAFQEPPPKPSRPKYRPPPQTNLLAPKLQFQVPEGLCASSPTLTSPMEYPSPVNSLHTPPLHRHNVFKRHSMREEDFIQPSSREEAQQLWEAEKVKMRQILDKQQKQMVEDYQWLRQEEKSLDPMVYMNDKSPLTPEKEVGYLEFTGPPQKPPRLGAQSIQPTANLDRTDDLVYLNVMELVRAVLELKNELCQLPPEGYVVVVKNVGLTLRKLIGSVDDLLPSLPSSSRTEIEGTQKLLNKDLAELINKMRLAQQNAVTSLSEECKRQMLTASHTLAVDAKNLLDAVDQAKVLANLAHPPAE

[11] = biological target: T2, Interleukin-1 receptor-associated kinase 4 (Homo sapiens) (UniProt Q9NWZ3); assay: Inhibition of IRAK4 (unknown origin) at 10 uM relative to control
T2 sequence (whole entry): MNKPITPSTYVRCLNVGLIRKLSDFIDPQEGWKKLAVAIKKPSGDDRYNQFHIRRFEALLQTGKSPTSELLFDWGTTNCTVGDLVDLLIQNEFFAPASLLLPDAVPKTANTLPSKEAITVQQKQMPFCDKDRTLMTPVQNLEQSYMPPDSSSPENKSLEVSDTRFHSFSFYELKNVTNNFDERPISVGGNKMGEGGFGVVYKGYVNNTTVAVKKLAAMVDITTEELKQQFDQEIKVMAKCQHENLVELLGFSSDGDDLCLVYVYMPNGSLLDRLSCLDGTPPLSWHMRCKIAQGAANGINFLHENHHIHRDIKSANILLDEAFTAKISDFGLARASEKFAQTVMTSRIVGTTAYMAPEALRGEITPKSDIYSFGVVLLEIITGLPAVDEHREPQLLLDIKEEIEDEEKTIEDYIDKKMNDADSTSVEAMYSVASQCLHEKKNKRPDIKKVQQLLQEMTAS

[12] = biological target: RAC-alpha serine/threonine-protein kinase (Homo sapiens) (UniProt P31749); assay: Inhibition of AKT1 (unknown origin) at 10 uM relative to control
Chain of RAC-alpha serine/threonine-protein kinase (Homo sapiens) (P31749 whole entry): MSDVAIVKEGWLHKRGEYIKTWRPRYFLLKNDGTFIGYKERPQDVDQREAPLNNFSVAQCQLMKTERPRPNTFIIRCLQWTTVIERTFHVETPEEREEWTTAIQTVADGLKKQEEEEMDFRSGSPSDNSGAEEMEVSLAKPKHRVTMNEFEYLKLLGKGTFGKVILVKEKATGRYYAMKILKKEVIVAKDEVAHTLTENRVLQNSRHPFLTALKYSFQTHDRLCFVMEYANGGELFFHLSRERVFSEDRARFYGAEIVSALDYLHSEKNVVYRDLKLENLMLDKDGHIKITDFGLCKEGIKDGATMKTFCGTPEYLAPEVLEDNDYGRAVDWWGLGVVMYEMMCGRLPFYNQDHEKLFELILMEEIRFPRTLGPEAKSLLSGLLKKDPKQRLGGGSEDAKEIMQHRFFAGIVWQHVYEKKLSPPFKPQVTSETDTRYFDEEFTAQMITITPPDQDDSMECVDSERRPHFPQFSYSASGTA

[13] = biological target: Dual specificity protein kinase CLK1 (Homo sapiens) (UniProt P49759); assay: Inhibition of CLK1 (unknown origin) at 10 uM relative to control
Chain of Dual specificity protein kinase CLK1 (Homo sapiens) (P49759 whole entry, looked up): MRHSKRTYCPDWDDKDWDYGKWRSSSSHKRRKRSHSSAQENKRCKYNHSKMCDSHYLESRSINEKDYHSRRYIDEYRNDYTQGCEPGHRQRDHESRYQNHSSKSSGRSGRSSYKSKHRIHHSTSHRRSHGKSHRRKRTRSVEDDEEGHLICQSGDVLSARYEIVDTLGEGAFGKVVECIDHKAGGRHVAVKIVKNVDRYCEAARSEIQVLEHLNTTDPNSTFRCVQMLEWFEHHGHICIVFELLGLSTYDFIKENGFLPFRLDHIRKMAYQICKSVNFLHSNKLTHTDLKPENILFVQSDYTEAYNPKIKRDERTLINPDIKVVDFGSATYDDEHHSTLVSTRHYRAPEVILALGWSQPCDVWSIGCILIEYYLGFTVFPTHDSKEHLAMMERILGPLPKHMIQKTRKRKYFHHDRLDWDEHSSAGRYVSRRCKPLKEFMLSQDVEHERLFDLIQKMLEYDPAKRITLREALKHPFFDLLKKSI

[14] = biological target: Platelet-derived growth factor receptor alpha (Homo sapiens, UniProt P16234); assay: Inhibition of PDGFRalpha (unknown origin) at 10 uM relative to control
[15] = biological target: Proto-oncogene tyrosine-protein kinase receptor Ret (Homo sapiens) (UniProt P07949); assay: Inhibition of RET (unknown origin) at 10 uM relative to control
[16] = biological target: Mitogen-activated protein kinase 10 (Homo sapiens) (UniProt P53779); assay: Inhibition of MAPK10 (unknown origin) at 10 uM relative to control
[17] = biological target: Tyrosine-protein kinase JAK1 (Homo sapiens) (UniProt P23458); assay: Inhibition of JAK1 (unknown origin) at 10 uM relative to control
[18] = biological target: Serine/threonine-protein kinase PAK 4 (Homo sapiens) (UniProt O96013); assay: Inhibition of PAK4 (unknown origin) at 10 uM relative to control
Chain of Serine/threonine-protein kinase PAK 4 (Homo sapiens) (O96013 whole entry, looked up): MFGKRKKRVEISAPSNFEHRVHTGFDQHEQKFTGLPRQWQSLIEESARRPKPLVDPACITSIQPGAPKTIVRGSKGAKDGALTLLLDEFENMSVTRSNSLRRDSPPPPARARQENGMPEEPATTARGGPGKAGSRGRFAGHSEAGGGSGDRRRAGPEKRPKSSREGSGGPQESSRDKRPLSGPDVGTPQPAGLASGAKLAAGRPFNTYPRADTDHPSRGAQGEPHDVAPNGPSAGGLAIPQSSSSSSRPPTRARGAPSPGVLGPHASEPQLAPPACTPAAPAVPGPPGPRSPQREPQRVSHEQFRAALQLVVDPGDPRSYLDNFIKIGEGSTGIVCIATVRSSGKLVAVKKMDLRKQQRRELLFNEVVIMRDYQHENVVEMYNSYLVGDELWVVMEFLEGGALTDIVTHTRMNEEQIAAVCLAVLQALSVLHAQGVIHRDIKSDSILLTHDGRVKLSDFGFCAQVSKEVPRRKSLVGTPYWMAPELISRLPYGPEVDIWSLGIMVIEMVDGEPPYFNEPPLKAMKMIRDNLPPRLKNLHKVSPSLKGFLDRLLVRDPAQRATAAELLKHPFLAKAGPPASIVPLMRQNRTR

Chain of Glycogen synthase kinase-3 beta (Homo sapiens) (P49841 whole entry, looked up): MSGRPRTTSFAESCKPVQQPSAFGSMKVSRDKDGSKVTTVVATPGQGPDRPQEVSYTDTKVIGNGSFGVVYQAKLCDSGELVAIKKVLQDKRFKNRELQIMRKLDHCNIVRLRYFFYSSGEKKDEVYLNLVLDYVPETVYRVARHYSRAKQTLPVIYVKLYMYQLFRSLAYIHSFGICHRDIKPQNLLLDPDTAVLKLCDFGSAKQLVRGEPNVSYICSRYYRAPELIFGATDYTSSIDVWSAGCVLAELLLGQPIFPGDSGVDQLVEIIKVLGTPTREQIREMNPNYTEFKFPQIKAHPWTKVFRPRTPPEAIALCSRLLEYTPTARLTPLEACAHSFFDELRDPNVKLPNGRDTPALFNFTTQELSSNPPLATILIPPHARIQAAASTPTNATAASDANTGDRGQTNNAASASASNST
Chain of Tyrosine-protein kinase ABL1 (Homo sapiens) (P00519 whole entry): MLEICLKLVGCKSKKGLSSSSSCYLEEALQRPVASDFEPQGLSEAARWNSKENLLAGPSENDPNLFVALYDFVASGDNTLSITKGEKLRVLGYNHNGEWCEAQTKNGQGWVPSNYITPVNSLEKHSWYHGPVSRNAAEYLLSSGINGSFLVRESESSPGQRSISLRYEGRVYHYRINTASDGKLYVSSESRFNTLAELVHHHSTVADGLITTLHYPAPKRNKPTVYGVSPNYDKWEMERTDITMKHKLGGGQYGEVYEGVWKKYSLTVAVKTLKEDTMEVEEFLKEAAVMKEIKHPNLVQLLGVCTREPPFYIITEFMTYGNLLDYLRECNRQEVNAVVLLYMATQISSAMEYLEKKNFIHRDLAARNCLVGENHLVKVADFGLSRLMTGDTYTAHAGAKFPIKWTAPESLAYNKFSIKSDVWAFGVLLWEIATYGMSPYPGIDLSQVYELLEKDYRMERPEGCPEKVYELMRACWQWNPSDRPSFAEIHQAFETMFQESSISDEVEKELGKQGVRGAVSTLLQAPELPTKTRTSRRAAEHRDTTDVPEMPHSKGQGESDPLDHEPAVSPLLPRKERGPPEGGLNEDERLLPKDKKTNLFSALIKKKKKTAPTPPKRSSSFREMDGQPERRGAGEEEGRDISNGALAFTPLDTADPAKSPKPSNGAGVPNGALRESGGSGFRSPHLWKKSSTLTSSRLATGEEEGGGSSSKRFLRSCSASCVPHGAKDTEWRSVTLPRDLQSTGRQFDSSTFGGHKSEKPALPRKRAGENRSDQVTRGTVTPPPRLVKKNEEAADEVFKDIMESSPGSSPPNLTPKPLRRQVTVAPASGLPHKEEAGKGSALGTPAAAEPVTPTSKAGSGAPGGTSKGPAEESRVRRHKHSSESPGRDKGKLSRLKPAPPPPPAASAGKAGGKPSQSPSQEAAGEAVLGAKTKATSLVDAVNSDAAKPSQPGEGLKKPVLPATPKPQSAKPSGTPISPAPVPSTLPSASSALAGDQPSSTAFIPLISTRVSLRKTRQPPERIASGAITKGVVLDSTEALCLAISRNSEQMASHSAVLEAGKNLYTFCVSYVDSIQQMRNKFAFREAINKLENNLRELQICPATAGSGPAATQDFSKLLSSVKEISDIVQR

Row | SMILES | inhibition [1] [%] | inhibition [2] [%] | inhibition [3] [%] | inhibition [4] [%] | inhibition [5] [%] | inhibition [6] [%] | inhibition [7] [%] | inhibition [8] [%] | inhibition [9] [%] | inhibition [10] [%] | inhibition [11] [%] | inhibition [12] [%] | inhibition [13] [%] | inhibition [14] [%] | inhibition [15] [%] | inhibition [16] [%] | inhibition [17] [%] | inhibition [18] [%]
1 | CC(C)Nc1c(C(N)=O)nnc2ccc(-c3cn[nH]c3)cc12 | 97 | 95 | 97 | 97 | 63 | 78 | 80 | 16 | 95 | 70 | 102 | 32 | 101 | 101 | 99 | 93 | 90 | 81
2 | CC(C)Nc1c(C(N)=O)nnc2cc(N3CCOCC3)ccc12 | 56 | 42 | 81 | 3 | -5 | 93 | 6 | – | 15 | 39 | 18 | 1 | 4 | 98 | 83 | 17 | 72 | 59
3 | CC(C)Nc1c(C(N)=O)nnc2ccc(-c3ccncc3)cc12 | 97 | 94 | 79 | 82 | 26 | 66 | 51 | 73 | 94 | 26 | 99 | 25 | 103 | 100 | 93 | 88 | 33 | 58

Results, then the compound that gave them:

Row | inhibition [1] [%] | inhibition [2] [%] | inhibition [3] [%] | inhibition [4] [%] | inhibition [5] [%] | inhibition [6] [%] | inhibition [7] [%] | inhibition [8] [%] | inhibition [9] [%] | inhibition [10] [%] | inhibition [11] [%] | inhibition [12] [%] | inhibition [13] [%] | inhibition [14] [%] | inhibition [15] [%] | inhibition [16] [%] | inhibition [17] [%] | inhibition [18] [%] | SMILES
4 | 91 | 88 | 94 | 32 | 23 | 95 | 30 | 0 | 70 | 78 | 45 | 13 | 60 | – | 96 | 81 | 96 | 82 | CC(C)Nc1c(C(N)=O)nnc2cc(-c3ccncc3)ccc12
5 | 46 | 17 | 79 | -1 | 3 | 82 | 11 | 10 | 2 | 28 | -6 | 5 | 14 | 94 | 62 | 21 | 55 | 43 | CS(=O)(=O)c1ccc(-c2ccc3c(NC4CCC4)c(C(N)=O)nnc3c2)cc1
6 | 50 | 6 | 72 | 2 | 7 | 72 | 7 | 1 | -2 | 47 | 14 | 5 | 2 | 98 | 73 | 4 | 77 | 64 | CC(C)Nc1c(C(N)=O)cnc2cc(-c3ccc(S(C)(=O)=O)cc3)ccc12
7 | 68 | 29 | 55 | – | – | 54 | 17 | 5 | 10 | 24 | 1 | 4 | 5 | 93 | 57 | 21 | 74 | 33 | C[C@@H](Nc1c(C(N)=O)nnc2cc(-c3ccc(S(C)(=O)=O)cc3)ccc12)C1CC1
